In patent US8334248B2, “Aqueous solution of olanexidine, method of preparing the aqueous solution, and disinfectant” (Otsuka Pharmaceutical Co., Ltd., priority 2003, dated 2012):

Assay: Solubility in water
Type: physicochemical
From the text: Olanexidine has very poor solubility in water, and hitherto known salts of olanexidine are also poorly soluble in water. […] Consequently, sufficient bactericidal activity cannot be expected of an aqueous solution merely having olanexidine dissolved therein, and moreover, depending on the conditions the olanexidine may precipitate out.

Row | solubility in water (at 0° C.) | Structure (SMILES) | solubility in water relative to olanexidine hydrochloride (compared with less than 0.05% (W/V) of the hydrochloride)
1 |  | CCCCCCCCNC(=N)NC(=N)NCc1ccc(Cl)c(Cl)c1 [free olanexidine, 1-(3,4-dichlorobenzyl)-5-octylbiguanide] | a further order of magnitude less than this
2 | less than 0.05 % (W/V) | CCCCCCCCN=C(N)NC(N)=NCc1ccc(Cl)c(Cl)c1.Cl [olanexidine hydrochloride] | 
